# According to patent US8466089B2, “Pyrazole compounds, process for their production and herbicides containing them” (Ishihara Sangyo Kaisha, Ltd., priority 2008, dated 2013):
# Legend:
# Format in all cases: in vivo
# [1] = tested on: crabgrass (Digitaria sanquinalis L.); experiment: Test Example 2, soil application on the day after sowing; conditions: 21st to 22nd day after application, visual, read-out: Growth inhibition rate (%) Crabgrass
# Description: (§1) Upland field soil was put into a 1/170,000 hectare pot, and seeds of various plants (barnyardgrass (Echinochloa crus-galli L.), crabgrass (Digitaria sanquinalis L.), green foxtail (Setaria viridis L.), redroot pigweed (Amaranthus retroflexus L.), prickly sida (Sida spinosa L.), velvetleaf (Abutilon theophrasti MEDIC.), rice (Oryza sativa L.), corn (Zea mays L.), soybean (Glycine max Merr.)) and wheat (Triticum spp.) were sown. On the day after sowing, wettable powders or emulsifiable concentrates of the compounds of the present invention prepared in accordance with a conventional preparation method, were weighed so that the active ingredients became the prescribed amounts, and diluted with water in an amount corresponding to 500 liter per 1 hectare, followed by soil application with a small sprayer.
# (§2) On the 21st to 22nd day after the application, the state of growth of the respective plants was visually observed, and the herbicidal effect was evaluated by a growth inhibition rate (%) of from 0 (equivalent to the non-treated area) to 100% (complete kill).
# [2] = tested on: green foxtail (Setaria viridis L.); experiment: as above; conditions: 21st to 22nd day after application, visual, read-out: Growth inhibition rate (%) Green foxtail
# Description: as §1, §2
# [3] = tested on: corn (Zea mays L.); experiment: as above; conditions: 21st to 22nd day after application, visual, read-out: Growth inhibition rate (%) Corn
# Description: as §1, §2
# [4] = tested on: velvetleaf (Abutilon theophrasti MEDIC.); experiment: as above; conditions: 21st to 22nd day after application, visual, read-out: Growth inhibition rate (%) Velvetleaf
# Description: as §1, §2
# [5] = tested on: wheat (Triticum spp.); experiment: as above; conditions: 21st to 22nd day after application, visual, read-out: Growth inhibition rate (%) Wheat
# Description: as §1, §2
# [6] = tested on: prickly sida (Sida spinosa L.); experiment: as above; conditions: 21st to 22nd day after application, visual, read-out: Growth inhibition rate (%) Prickly sida
# Description: as §1, §2
# [7] = tested on: rice (Oryza sativa L.); experiment: as above; conditions: 21st to 22nd day after application, visual, read-out: Growth inhibition rate (%) Rice
# Description: as §1, §2
# [8] = tested on: soybean (Glycine max Merr.); experiment: as above; conditions: 21st to 22nd day after application, visual, read-out: Growth inhibition rate (%) Soybean
# Description: as §1, §2
# [9] = tested on: redroot pigweed (Amaranthus retroflexus L.); experiment: as above; conditions: 21st to 22nd day after application, visual, read-out: Growth inhibition rate (%) Redroot pigweed
# Description: as §1, §2
# [10] = tested on: barnyardgrass (Echinochloa crus-galli L.); experiment: as above; conditions: 21st to 22nd day after application, visual, read-out: Growth inhibition rate (%) Barnyardgrass
# Description: as §1, §2
# [11] = tested on: rice (Oryza sativa L.) (var.: Nihonbare); experiment: Test Example 3, paddy field pot, transplanted rice; conditions: applied 4th day after transplantation, 20th to 23rd day after application, read-out: Growth inhibition rate (%) Rice
# Description: Paddy field soil was put into a 1/1,000,000 hectare pot, and seeds of barnyardgrass (Echinochloa oryzicola vasing.) and Japanese bulrush (Scirpus juncoides) were sown and lightly covered with soil. Then, pot was left to stand in a greenhouse in a state irrigated to a water depth of from 0.5 to 1 cm, and next day or two days later, tubers of Japanese ribbon waparo (Sagittaria pygmaea) were planted. Then, the irrigated water depth was maintained to be from 3 to 4 cm, and when barnyardgrass and Japanese bulrush reached 0.5 leaf stage, and Japanese ribbon waparo reached primary leaf stage, a water diluted solution of a wettable powder or an emulsifiable concentrate of the compound of the present invention prepared in accordance with a conventional preparation method, was uniformly dropwise applied by a pipette so that the amount of active ingredients would be a prescribed amount. Further, paddy field soil was put into a 1/1,000,000 pot, followed by soil puddling to an irrigated water depth of from 3 to 4 cm. Next day, rice (Oryza sativa L.) (var.: Nihonbare) of two leaf stage was transplanted in a transplantation depth of 3 cm. On the 4th day after transplantation, the compound of the present invention was applied in the same manner as described above.
# On the 13th to 17th day after application, the state of growth of barnyardgrass, Japanese bulrush and Japanese ribbon waparo was visually observed, and on the 20th to 23rd day after application, the state of growth of rice was visually observed, and the herbicidal effect was evaluated by a growth inhibition rate (%) of 0 (equivalent to the non-treated area) to 100% (complete kill).
# [12] = tested on: corn (Zea mays L.); experiment: Test Example 1, foliar treatment in upland pots; conditions: 20th to 22nd day after application, visual, read-out: Growth inhibition rate (%) Corn
# Description: (§3) Upland field soil was put into a 1/170,000 hectare pot, and seeds of various plants were sown. When the respective plants reached predetermined leaf stage ((1) barnyardgrass (Echinochloa crus-galli L.): 1.2 to 3.0 leaf stage, (2) crabgrass (Digitaria sanguinalis L.): 1.0 to 3.0 leaf stage, (3) green foxtail (Setaria viridis L.): 1.5 to 3.0 leaf stage, (4) redroot pigweed (Amaranthus retroflexus L.): cotyledon stage to 1.5 leaf stage, (5) prickly sida (Sida spinosa L.): cotyledon stage to 2.0 leaf stage, (6) velvetleaf (Abutilon theophrasti MEDIC.): cotyledon stage to 1.3 leaf stage, (7) rice (Oryza sativa L.): 1.2 to 2.5 leaf stage, (8) corn (Zea mays L.): 2.0 to 3.3 leaf stage, (9) soybean (Glycine max Merr.): primary leaf stage to 0.3 leaf stage) and wheat (Triticum spp.): 2.0 to 3.0 leaf stage, wettable powders or emulsifiable concentrates of the compounds of the present invention prepared in accordance with a conventional preparation method, were weighed so that the active ingredients became the prescribed amounts, and diluted with water in an amount corresponding to 500 liter per 1 hectare (containing 0.1 vol % of an agricultural spreader (“KUSARINOH”, manufactured by NIHON NOHYAKU CO., LTD.)). The spray solutions thus prepared were applied for foliar treatment by a small sprayer.
# (§4) On the 20th to 22nd day after application, the state of growth of the respective plants was visually observed, and the herbicidal effect was evaluated by a growth inhibition rate (%) of 0 (equivalent to the non-treated area) to 100% (complete kill).
# [13] = tested on: redroot pigweed (Amaranthus retroflexus L.); experiment: Test Example 1, foliar treatment in upland pots; conditions: 20th to 22nd day after application, visual, read-out: Growth inhibition rate (%) Redroot pigweed
# Description: as §3, §4
# [14] = tested on: crabgrass (Digitaria sanguinalis L.); experiment: Test Example 1, foliar treatment in upland pots; conditions: 20th to 22nd day after application, visual, read-out: Growth inhibition rate (%) Crabgrass
# Description: as §3, §4
# [15] = tested on: barnyardgrass (Echinochloa crus-galli L.); experiment: Test Example 1, foliar treatment in upland pots; conditions: 20th to 22nd day after application, visual, read-out: Growth inhibition rate (%) Barnyardgrass
# Description: as §3, §4
SMILES,inhibition at 250 g/ha [1] [%],inhibition at 250 g/ha [2] [%],inhibition at 250 g/ha [3] [%],inhibition at 250 g/ha [4] [%],inhibition at 250 g/ha [5] [%],inhibition at 250 g/ha [6] [%],inhibition at 250 g/ha [7] [%],inhibition at 250 g/ha [8] [%],inhibition at 250 g/ha [9] [%],inhibition at 250 g/ha [10] [%],inhibition at 63 g/ha [11] [%],inhibition at 7 g/ha [12] [%],inhibition at 7 g/ha [13] [%],inhibition at 7 g/ha [14] [%],inhibition at 7 g/ha [15] [%]
"COC(=O)OC(C)Oc1c(C(=O)c2ccc(S(C)(=O)=O)c(C(=O)OC)c2C)cnn1C (stereo not drawn) [Compound No. 1-2, Methyl 3-(5-(1-(methoxycarbonyloxy)ethoxy)-1-methyl-1H-pyrazole-4-carbonyl)-2-methyl-6-(methylsulfonyl)benzoate]",100,100,0,100,20,98,100,70,100,100,40,0,95,90,100
"CCOC(=O)OC(C)Oc1c(C(=O)c2ccc(S(C)(=O)=O)c(OCCOC(C)C)c2C)cnn1C (stereo not drawn) [Compound No. 1-5, Ethyl 1-(4-(3-(2-isopropoxyethoxy)-2-methyl-4-(methylsulfonyl)benzoyl)-1-methyl-1H-pyrazol-5-yloxy)ethyl carbonate]",95,100,10,100,0,90,80,10,100,100,30,10,80,90,95
"COCCOc1c(S(C)(=O)=O)ccc(C(=O)c2c(C)nn(C)c2OC(C)OC(=O)OC)c1C (stereo not drawn) [Compound No. 1-6, 1-(4-(3-(2-Methoxyethoxy)-2-methyl-4-(methylsulfonyl)benzoyl)-1,3-dimethyl-1H-pyrazol-5-yloxy)ethyl methyl carbonate]",100,70,0,100,5,99,98,0,100,100,30,0,90,90,90
"CCn1ncc(C(=O)c2ccc(S(C)(=O)=O)c(OCCOC)c2C)c1OC(C)OC(=O)OC (stereo not drawn) [Compound No. 2-1, 1-(1-Ethyl-4-(3-(2-methoxyethoxy)-2-methyl-4-(methylsulfonyl)benzoyl)-1H-pyrazol-5-yloxy)ethyl methyl carbonate]",100,100,0,100,0,90,98,0,100,95,20,0,90,100,95
"CCCn1ncc(C(=O)c2ccc(S(C)(=O)=O)c(OCCOC)c2C)c1OC(C)OC(=O)OCC (stereo not drawn) [Compound No. 3-1, Ethyl 1-(1-n-propyl-4-(3-(2-methoxyethoxy)-2-methyl-4-(methylsulfonyl)benzoyl)-1H-pyrazol-5-yloxy)ethyl carbonate]",80,60,0,80,10,80,20,0,40,60,30,0,80,70,70
"COCCOc1c(S(C)(=O)=O)ccc(C(=O)c2cnn(C(C)C)c2OC(C)OC(=O)OC)c1C (stereo not drawn) [Compound No. 4-1, 1-(1-Isopropyl-4-(3-(2-methoxyethoxy)-2-methyl-4-(methylsulfonyl)benzoyl)-1H-pyrazol-5-yloxy)ethyl methyl carbonate]",100,100,0,100,10,95,98,0,100,100,40,0,85,90,90
"Cc1c(C(=O)c2cnn(C)c2O)ccc(S(C)(=O)=O)c1OCCC(C)C [Compound No. 5-1, (5-Hydroxy-1-methyl-1H-pyrazol-4-yl)(3-(2-isopropylethoxy)-2-methyl-4-(methylsulfonyl)phenyl)ketone]",98,95,10,100,20,98,98,0,100,98,30,0,60,50,30
